Patent US20240400542A1 (University of Virginia Patent Foundation, priority 2021, published 2024)

Columns and labels:
Assay in all cases: SILAC competitive chemical proteomic assay (TH211 probe, LC-MS/MS)
[1] = test system: Heat shock protein HSP 90-beta; format: cell-based, human; settings: TH207 inhibitor; HEK293T soluble fraction; tyrosine 61
Description: (§1) The light and heavy proteomes (2.3 mg/mL, 432 μL) prepared from HEK293T cells that were pretreated in situ with vehicle (DMSO) or the inhibitor (2 μM), respectively, at 37° C. for 1 hr followed by probe TH211 treatment (50 μM) for 2 h, were directly were subjected to click reaction with the desthiobiotin-PEG3-azide (10 mM in DMSO, 10 μL, final concentration 200 μM) in the presence of TCEP (50 mM, 10 μL), TBTA (1.7 mM, 33 μL) and CuSO4 (50 mM, 10 μL) at room temperature for 1 hr. The light and the heavy samples were mixed in the chloroform-methanol extraction step. The subsequent steps including reduction with dithiothreitol, alkylation with iodoacetamide, digestion with Trypsin/Lys-C, enrichment with avidin beads were conducted as previously described^26.

Isoleucine tRNA ligase = target: T1, Isoleucine tRNA ligase (Homo sapiens, UniProt Q9NSE4); format: cell-based; settings: TH207 inhibitor; HEK293T soluble fraction; Q9NSE4.2 tyrosine 260
T1 construct: endogenous in cells; host or cells: HEK293T
T1 sequence (Q9NSE4 49-1012): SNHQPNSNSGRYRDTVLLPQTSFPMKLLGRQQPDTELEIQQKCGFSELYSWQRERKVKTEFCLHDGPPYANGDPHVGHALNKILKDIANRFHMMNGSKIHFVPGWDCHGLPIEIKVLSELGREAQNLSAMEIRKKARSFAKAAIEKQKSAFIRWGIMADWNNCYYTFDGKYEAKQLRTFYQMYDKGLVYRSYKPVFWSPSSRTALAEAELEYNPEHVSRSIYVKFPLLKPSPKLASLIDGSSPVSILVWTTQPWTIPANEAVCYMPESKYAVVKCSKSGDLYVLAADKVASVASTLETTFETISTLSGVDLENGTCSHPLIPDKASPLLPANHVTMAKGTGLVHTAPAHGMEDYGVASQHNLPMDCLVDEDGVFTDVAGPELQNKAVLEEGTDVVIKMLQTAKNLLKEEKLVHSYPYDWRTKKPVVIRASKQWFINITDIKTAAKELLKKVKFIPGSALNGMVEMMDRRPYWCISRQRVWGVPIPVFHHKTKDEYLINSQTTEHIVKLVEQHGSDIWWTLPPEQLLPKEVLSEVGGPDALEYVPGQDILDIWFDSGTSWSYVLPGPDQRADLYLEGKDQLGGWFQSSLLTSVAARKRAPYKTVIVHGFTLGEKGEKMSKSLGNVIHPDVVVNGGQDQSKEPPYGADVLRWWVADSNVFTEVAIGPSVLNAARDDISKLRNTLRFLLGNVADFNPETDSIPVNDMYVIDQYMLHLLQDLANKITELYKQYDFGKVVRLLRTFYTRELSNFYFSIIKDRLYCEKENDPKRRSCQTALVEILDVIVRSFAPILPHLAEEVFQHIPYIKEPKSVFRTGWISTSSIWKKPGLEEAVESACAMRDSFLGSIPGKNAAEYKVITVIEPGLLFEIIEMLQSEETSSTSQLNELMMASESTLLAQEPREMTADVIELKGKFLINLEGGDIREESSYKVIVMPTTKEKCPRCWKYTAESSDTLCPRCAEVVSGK
Description: as §1

Major capsid protein VP1 = format: cell-based; settings: TH207 inhibitor; HEK293T soluble fraction; Q98WD1 lysine 235
Description: as §1

Coronin-1C = target: T2, Coronin-1C (Homo sapiens, UniProt Q9ULV4); format: cell-based; settings: TH207 inhibitor; HEK293T soluble fraction; Q9ULV4.1 tyrosine 301
T2 construct: endogenous in cells; host or cells: HEK293T
Description: as §1

Cytochrome c = target: T3, Cytochrome c (Homo sapiens, UniProt P99999); format: cell-based; settings: TH207 inhibitor, HEK293T soluble fraction
T3 construct: endogenous in cells; host or cells: HEK293T
Description: as §1

T3 sequence (P99999 whole entry): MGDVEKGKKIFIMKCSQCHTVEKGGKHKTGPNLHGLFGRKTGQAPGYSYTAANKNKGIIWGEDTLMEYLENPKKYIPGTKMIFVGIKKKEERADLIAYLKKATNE
T2 sequence (Q9ULV4 whole entry): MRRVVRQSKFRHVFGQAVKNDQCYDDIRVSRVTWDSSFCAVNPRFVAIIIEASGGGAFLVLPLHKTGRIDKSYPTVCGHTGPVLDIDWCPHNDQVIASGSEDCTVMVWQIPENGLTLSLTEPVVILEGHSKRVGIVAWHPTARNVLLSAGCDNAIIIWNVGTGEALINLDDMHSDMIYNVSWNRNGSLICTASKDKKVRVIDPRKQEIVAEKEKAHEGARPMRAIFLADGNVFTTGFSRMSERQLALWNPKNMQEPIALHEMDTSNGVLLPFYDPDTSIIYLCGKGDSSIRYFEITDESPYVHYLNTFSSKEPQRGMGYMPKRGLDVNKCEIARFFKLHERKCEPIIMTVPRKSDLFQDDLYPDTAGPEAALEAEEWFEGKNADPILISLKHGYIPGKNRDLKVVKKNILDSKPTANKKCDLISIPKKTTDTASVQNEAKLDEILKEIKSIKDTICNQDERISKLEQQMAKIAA

Cc1ccc(S(=O)(=O)n2cc(CCN3CCC(=C(c4ccc(F)cc4)c4ccc(F)cc4)CC3)nn2)cc1 [TH207, 4-(Bis(4-fluorophenyl)methylene)-1-(2-(1-tosyl-1H-1,2,3-triazol-4-yl)ethyl)piperidine]
Normalized SILAC ratio (SR), Heat shock protein HSP 90-beta Y61 [1]: 1.5 | Normalized SILAC ratio (SR), Isoleucine tRNA ligase Y260 (Isoleucine tRNA ligase): 1.8 | Normalized SILAC ratio (SR), Major capsid protein VP1 K235 (Major capsid protein VP1): 1.3 | Normalized SILAC ratio (SR), Coronin-1C Y301 (Coronin-1C): 20 | Normalized SILAC ratio (SR), Cytochrome c K28 (Cytochrome c; P99999.2 lysine 28): 1.4 | Normalized SILAC ratio (SR), Cytochrome c K40 (Cytochrome c; P99999.2 lysine 40): 1.5 | Normalized SILAC ratio (SR), Cytochrome c K54 (Cytochrome c; P99999.2 lysine 54): 1.8 | Normalized SILAC ratio (SR), Cytochrome c Y49 (Cytochrome c; P99999.2 tyrosine 49): 1.5
